From EP4028002B1, “AN ANTICANCER COMBINATION OF CHIDAMIDE AND CELECOXIB” (Great Novel Therapeutics Biotech & Medicals Corporation, priority 2019, dated 2021)

Columns and labels:
[1] = low solubility and high permeability; cited from earlier work
[2] = Saturation solubility study in ddH2O; format: physicochemical; details: 25°C, 90 minutes; for Saturation & Solubility: 100 rpm, mean ± SD of triplicates, per batch; for saturation solubility (water solubility): independent batches
Method: Determination of Saturation Solubility of Chidamide-HCl, Chidamide-H2SO4, and Celecoxib-Na Salts. Sample of 5 mg of chidamide-HCl, chidamide-H2SO4, or celecoxib-Na salts was added to 5 ml volumetric flasks containing ddH2O and shook at 100 rpm in an incubator at 25°C for 90 minutes. The resulting suspension was filtered through a 0.22 µm filter. The concentrations of chidamide-HCl, chidamide-H2SO4, and celecoxib-Na salts were determined spectrophotometrically at 256 nm, 256 nm, and 253 nm, respectively. The saturation solubility of each sample was determined in triplicates and the mean value and standard deviation were reported. Preparation of standard curves is described as below.

Saturation & Solubility [2] | saturation solubility (water solubility) [2] | Structure (SMILES) | BCS (biopharmaceutical classification system) class [1]
BDL | water-insoluble | Cc1ccc(-c2cc(C(F)(F)F)nn2-c2ccc(S(N)(=O)=O)cc2)cc1 [Celecoxib-API, 4-[5-(4-Methylphenyl)-3-(trifluoromethyl)pyrazol-1-yl]benzenesulfonamide] | class II
BDL | water-insoluble | Nc1cc(F)ccc1NC(=O)c1ccc(CNC(=O)/C=C/c2cccnc2)cc1 [Chidamide-API, 4-(((E)-3-(pyridin-3-yl)acrylamido)methyl)-N-(2-amino-4-fluorophenyl)benzamide] | 
